According to patent US20180193327A1, “PROPHYLACTIC LEUKOTRIENE INHIBITOR AND IMPLANT DISPLACEMENT THERAPY FOR PREVENTION AND TREATMENT OF CAPSULAR CONTRACTURE IN SILICONE BREAST AUGMENTATION” (priority 2017, published 2018):
Several values for one entry are separate records, joined by “and”; a condition that tells them apart may be missing. Equal values may be shown once. Marks after values point to notes of the source that are not given here.

What was measured:
[1] = tested on: capsular contracture in patients undergoing capsulectomy and silicone implant replacement; assay: Recurrence of capsular contracture (Baker scale) at one year after capsulectomy and silicone implant replacement; type: in vivo
Experimental: The study was performed with patients undergoing primary capsulectomy and silicone implant replacement for grade III and IV capsular contracture according to the methods depicted in FIGS. 3 and 4 of the present disclosure. […] Patients with a history of subglandular breast augmentation or those who underwent concurrent mastopexy revision or replacement with textured silicone breast implants were not included in the study. Enrolled patients underwent surgery with either an inframammary or periareolar incision.
One group of patients underwent capsulectomy and implant replacement without the use of leukotriene inhibitors. Another group of patients agreed to the off-label use of zafirlukast (Accolate; AstraZeneca Pharmaceuticals, Wilmington, Del.) and were treated beginning the day following the capsulectomy and implant replacement procedure. All patients were between the ages of 22 and 60 years of age and consented to the use of Mentor Memory Gel silicone gel breast implants with a smooth surface (Mentor Worldwide, Irvine, Calif.) and the off-label use of triple-antibiotic irrigation containing povidone-iodine (Betadine; Purdue Frederick Co., Norwalk, Conn.). In addition, a detailed informed consent was provided for the off-label use of Accolate. All patients were adequately informed of the risks, potential unknown benefits, cost, and potential side effects of leukotriene therapy with both verbal and written consent. Patients were informed that taking Accolate was voluntary and that they could discontinue this medication at any time for any reason.
Patients undergoing capsulectory and re-augmentation were treated with the incision initially used by the original surgeon, with either an inframmary or periareolar approach. All patients were surgically treated with complete periprosthetic capsulectomy. Patients were also treated with preoperative intravenous antibiotics, either a 1-g dose of cephazolin or 600 mg of clindamycin, selected based on allergy profiles. Before insertion of implants, triple-antibiotic irrigation [50,000 U of bacitracin, 1 g of Ancef (GlaxoSmithKline, Middlesex, United Kingdom), and 80 mg of gentamicin] with the addition of 50 ml of povidone-iodine in 500 ml of normal saline was used.
Hemovac ⅛ inch drains (Medline Industries, Rialto, Calif.) were used on all breasts receiving capsulectomy. All implants were placed with powder-free glove changes and inserted through a skin barrier/nipple shield using Tegaderm (3M, St. Paul, Minn.) dressings. Drains were left in place until drainage from one breast reached 30 ml/24 hrs, or 60 ml/24 hrs if both breasts were treated. The implant displacement therapy protocol was initiated two days after drains were removed.
(§1) Patients were treated with Accolate 20 mg twice daily, beginning the day after surgery. Patients with a history of hepatitis or liver disease were excluded. Patient compliance with the recommended dosage was encouraged, but patients were advised that they could discontinue the medication at any time that they experienced significant side effects. All patients receiving Accolate therapy underwent liver function studies 4 weeks after the initiation of Accolate therapy. […] Follow-up liver function studies were performed at 2-week intervals, until transaminases normalized. […] Liver function studies were repeated after 3 months of Accolate therapy for patients choosing to continue Accolate for a 6-month course.
All patients were evaluated at frequent follow-up appointments, including early postoperative visits, 1 month, 3 months, 6 months, and 1 year postoperatively. Capsular contracture was evaluated by the Baker scale. Patients with grade III or IV capsular contractures were considered as having clinical capsular contracture. Each patient was considered based on the number of their breasts associated with clinical capsular contracture ranging from none to two breasts. […]

[2] = Voluntary discontinuation of Accolate after capsulectomy and implant replacement; type: in vivo; settings: group of 279 patients
Experimental: as §1
A total of 447 consecutive patients were evaluated during the study period. A first group of 168 consecutive patients with encapsulated breast implants were studied and no leukotriene inhibitor therapy was offered postoperatively. This included 55 patients with bilateral capsular contracture. […] A second group of 279 consecutive patients with encapsulated breast implants were studied and treated with Accolate, including 87 patients with bilateral capsular contracture. There were 366 breasts with capsular contracture among patients in this group. […] Twelve patients discontinued the use of Accolate voluntarily based on cost or minor side effects and were excluded from the study.

[3] = Side effects and discontinuation reported by patients taking leukotriene inhibitors after primary augmentation; type: in vivo, patients (women); settings: for Percentage of patients discontinuing the medication because of (minor) side effects or cost: female, 3 months
Experimental: (§2) Patients that were administered Singulair were treated according to the method described in FIGS. 1 and 2 of the present disclosure. First, patients were evaluated clinically to see if they were a candidate for breast augmentation with physical examination and medical history. The medical history review included discussion and review of liver health, current medications, and potential contraindications or drug interactions with leukotriene inhibitors. Patients were then provided an informed consent for the use of Singulair, 10 mg daily. The informed consent reviewed the potential benefits and risks of this medication which is taken as an off-label indication. Breast augmentation was performed with either smooth or textured silicone or saline implants. On the day following surgery, Singulair therapy is initiated, 10 mg QD. In the first week following surgery, the implant displacement therapy protocol was begun for patients with smooth surface silicone implants. The implant displacement therapy protocol may also be performed, if indicated, for patients with mildly textured breast implants, but not with moderately textured or highly textured devices. Monitoring for side effects from Singulair was conducted by educating patients as to the common side effects and discussing with patients noted side effects. Singulair can be discontinued if the side effects are significant. At thirty days postoperatively, the softness of the breast implants as well as the implant movement and position was evaluated to determine if capsular contracture was present. Two more months of Singulair was prescribed. Following three total months of therapy, the breasts were evaluated for the presence of capsular contracture. Patients without clinical capsular contracture, Baker I and II, were completed with therapy. Patients with clinical capsular contracture, either Baker III or IV, were treated with an additional three months of Singulair therapy as prescribed with the continuation of implant displacement therapy protocol. If patients declined to take Singulair or had side effects from the medication, implant displacement therapy protocol was continued and patients were offered 800 units-1000 units of Vitamin E daily in lieu of Singulair.
Patients that were administered Accolate were treated according to the method described in FIGS. 1 and 2 of the present disclosure. First, patients were evaluated clinically to see if they were a candidate for breast augmentation with physical examination and medical history. The medical history review included discussion and review of liver health, current medications, and potential contraindications or drug interactions with leukotriene inhibitors. Patients were then provided an informed consent for the use of Accolate (Zafirlukast), 20 mg twice daily. Patients were counseled to take the medication at least one hour before meals. The informed consent reviews the potential benefits and risks of this medication which is taken as an off-label indication. Breast augmentation was performed with either smooth or textured silicone or saline implants. On the day following surgery, Accolate therapy was initiated, 20 mg BID. In the first week following surgery, the implant displacement therapy protocol was begun for patients with smooth surface silicone implants. The implant displacement therapy protocol may also be performed, if indicated, for patients with mildly textured breast implants, but not with moderately textured or highly textured devices. […]

[4] = tested on: capsular contracture in patients undergoing primary silicone gel breast augmentation; assay: Capsular contracture (Baker scale) at one year after primary silicone gel breast augmentation, retrospective review; type: in vivo, patients (women); settings: for % of Patients with Capsular Contracture: one year following primary silicone gel breast augmentation, Baker grade III or IV, three months therapy plus implant displacement protocol
Experimental: The study was performed with a retrospective review of 1122 consecutive women undergoing primary, silicone gel breast augmentation. Over time, the author added leukotriene inhibitor therapy to the postoperative treatment of patients. The first group of patients were treated without leukotriene therapy. Consecutive patients agreeing to the off-label use of leukotriene inhibitors were then studied. The second group of consecutive patients was offered Singulair therapy postoperatively while all other aspects of the surgical technique and care remained the same. Finally, the author offered Accolate therapy to the final group of patients undergoing breast augmentation.
Patients chose augmentation with either a periareolar or inframammary approach. Silicone breast augmentation procedures were performed using a standardized, dual plane technique. All patients were treated with preoperative intravenous antibiotics, either a one-gram dose of cephazolin or 600 mg of clindamycin, selected based on allergy profiles. Prior to insertion of implants, triple-antibioic irrigation (50,000 U bacitracin, 1 g Ancef, 80 mg gentamicin) with the addition of 50 ml of povidone-iodine in 500 ml of normal saline was utilized. All implants were placed with power-free glove changes, and inserted through a skin barrier/nipple shield using Tegaderm dressings. The implant displacement therapy protocol was initiated on post-operative day two.
as §2
Patients that were administered Accolate were treated according to the method described in FIGS. 1 and 2 of the present disclosure. First, patients were evaluated clinically to see if they were a candidate for breast augmentation with physical examination and medical history. […]

[5] = Liver function studies (transaminases) during Accolate therapy after capsulectomy and implant replacement; type: in vivo; settings: at one month postoperatively; group of 279 patients, 20 mg twice daily
Experimental: as §1

[6] = FDA post-approval studies for the treatment of asthma; cited from earlier work
[7] = Liver function studies (transaminases) during Accolate therapy after primary augmentation; type: in vivo, patients (women)
Experimental: At thirty days postoperatively, blood testing was performed, with a measurement of transaminase levels and liver function studies. The softness of the breast implants as well as the implant movement and position was evaluated to determine if capsular contracture was present. Patients with normal liver function studies were provided two more months of Accolate therapy. At the completion of this, two additional months of treatment, the breasts were evaluated for the presence of capsular contracture. Patients without clinical capsular contracture, Baker I and II, were completed with therapy. Patients with clinical capsular contracture, either Baker III or IV, underwent repeat liver function studies. If transaminase levels were within normal limits, an additional three months of Accolate therapy was prescribed with the continuation of breast implant displacement therapy.
If liver function studies were abnormal and transaminase levels were elevated at any time in the treatment period, Accolate therapy was immediately discontinued and repeat liver function studies were performed every 14 days until normal levels were reached. If applicable, breast implant displacement therapy was continued and patients were offered 800 units-1000 units of Vitamin E daily in lieu of Accolate. Patients undergoing treatment with Accolate were monitored with a blood testing program. Following thirty days of treatment with Accolate, patients underwent liver function studies with evaluation of transaminase enzymes, including SGOT and SGPT, or ALT and AST. Normal ranges of enzyme levels were required to continue Accolate therapy.
All patients receiving Accolate therapy underwent liver function studies four weeks following the initiation of Accolate therapy. […] Follow-up liver function studies were performed at two week intervals, until transaminases normalized. […] Liver function studies were repeated after three months of Accolate therapy for patients choosing to continue Accolate for a six month course.

[8] = preoperative Grade III (172 breasts)
[9] = preoperative Grade IV (194 breasts)
[10] = preoperative Total III/IV (366 breasts)
[11] = one year following silicone gel breast augmentation
[12] = one year following silicone gel breast augmentation, patients with contracture/patients followed

COc1cc(C(=O)NS(=O)(=O)c2ccccc2C)ccc1Cc1cn(C)c2ccc(NC(=O)OC3CCCC3)cc12 [Accolate, Zafirlukast]
Number of breasts with capsular contracture, postoperative Grade III [1, 8]: 7 | Number of breasts with capsular contracture, postoperative Grade IV [1, 8]: 2 | Number of breasts with capsular contracture, postoperative Total [1, 8]: 9 | Percent of breasts with capsular contracture, postoperative Grade III [1, 8]: 4.1% | Percent of breasts with capsular contracture, postoperative Grade IV [1, 8]: 1.2% | Percent of breasts with capsular contracture, postoperative Total [1, 8]: 5.3% | Number of breasts with capsular contracture, postoperative Grade III [1, 9]: 15 | Number of breasts with capsular contracture, postoperative Grade IV [1, 9]: 5 | Number of breasts with capsular contracture, postoperative Total [1, 9]: 20 | Percent of breasts with capsular contracture, postoperative Grade III [1, 9]: 7.8% | Percent of breasts with capsular contracture, postoperative Grade IV [1, 9]: 2.6% | Percent of breasts with capsular contracture, postoperative Total [1, 9]: 10.3% | Number of breasts with capsular contracture, postoperative Grade III [1, 10]: 22 | Number of breasts with capsular contracture, postoperative Grade IV [1, 10]: 7 | Number of breasts with capsular contracture, postoperative Total [1, 10]: 29 | Percent of breasts with capsular contracture, postoperative Grade III [1, 10]: 6.0% | Percent of breasts with capsular contracture, postoperative Grade IV [1, 10]: 1.9% | Percent of breasts with capsular contracture, postoperative Total [1, 10]: 7.9% | Number of patients who discontinued voluntarily based on cost or minor side effects [2]: Twelve | Percentage of patients discontinuing the medication because of (minor) side effects or cost ([3]; human, in vivo): 6.2% | Irreversible side effects noted in the study ([3]; human, in vivo): no irreversible side effects | Patients who tolerated the medication well ([3]; primary augmentation study): ~95% | Reduction of the encapsulation risk ([4]; addition of the drug in the first three months following augmentation, versus no leukotriene inhibitor): over 50% | % of Patients with Capsular Contracture [4]: 2.19%* | Percentage of patients demonstrating capsular contracture, inframammary incision [4, 11]: 1.74% | Percentage of patients demonstrating capsular contracture, periareolar incision [4, 11]: 2.31% and 2.38% | Percentage of patients demonstrating capsular contracture, total (both incisions) [4, 11]: 2.19% | Number of patients demonstrating capsular contracture, inframammary incision [4, 12]: 2/115 | Number of patients demonstrating capsular contracture, total (both incisions) [4, 12]: 8/375 | Number of patients with grade III/IV capsular contracture at three months that improved to grade II with an additional three months of therapy ([4]; primary augmentation, six months of therapy in total): five | Capsular contracture rate compared with patients not treated with leukotriene inhibitors ([4]; three months of therapy after primary augmentation, result in words): significantly lower | Number of patients with (mild) elevation of transaminases [5]: Two | Potential significant (uncommon) risks reported [6]: chemical hepatitis, liver failure, and even death | Percentage of patients with (mild) elevation of transaminases ([7]; at 30 days of treatment, 20 mg bid, medication discontinued): 0.58% | Number of patients with (mild) elevation of transaminases ([7]; at 30 days of treatment, out of 520 treated): Three and 3/520 | Time for transaminases to return to normal after discontinuing the medication ([7]; two patients within two weeks, one patient within four weeks): four

CC(C)(O)c1ccccc1CC[C@@H](SCC1(CC(=O)O)CC1)c1cccc(/C=C/c2ccc3ccc(Cl)cc3n2)c1 [Singulair, Montelukast]
Percentage of patients discontinuing the medication because of (minor) side effects or cost ([3]; human, in vivo): 2.5% | Common side effects reported by patients ([3]; human, in vivo): headache, GI symptoms, fatigue, rash | % of Patients with Capsular Contracture [4]: 3.27% | Percentage of patients demonstrating capsular contracture, inframammary incision [4, 11]: 2.08% | Percentage of patients demonstrating capsular contracture, periareolar incision [4, 11]: 3.81% | Percentage of patients demonstrating capsular contracture, total (both incisions) [4, 11]: 3.27%
